From article PMC7834738 (Molecular Therapy, 2020)
“Also recorded” adds a separate entry of the source.

How the values were obtained:
[1] = tested on: SARS-CoV-2 (USA_WA1/2020); type: cell-based
[2] = healthy adults; cited from earlier work
Vero E6 cells = type: cell-based
COVID-19 = settings: 392 participants, outpatient setting; cited from earlier work
SARS-CoV-2 [3] = settings: cited from earlier work
SARS-CoV-2 [4] = settings: single agent; cited from earlier work

Structure (SMILES): CC(=O)Oc1ccccc1C(=O)Nc1ncc([N+](=O)[O-])s1 [Nitazoxanide]
- nitazoxanide concentrations with complete rescue of CPE [1]: 0.625 to 5 µM
- tolerability [2]: well tolerated
- cytotoxicity (Vero E6 cells): not cytotoxic
- toxicity to Vero E6 cells (Vero E6 cells): ~20%
- efficacy with respect to 7-day viral load and symptom resolution (COVID-19): modest efficacy
- IC50 (SARS-CoV-2 [3]): ~2000 nM

Structure (SMILES): CCN(CC)Cc1cc(Nc2ccnc3cc(Cl)ccc23)ccc1O [Amodiaquine]
- antagonism against GS-441524 [1]: not
- concentrations that significantly antagonized against remdesivir [1]: 0.625 to 5 µM
- interaction with nitazoxanide in CPE assay [1]: notable synergism
- interaction with remdesivir at high concentrations [1]: synergize
- interaction with remdesivir in CPE assay [1]: strong antagonistic effect; also recorded: antagonize
- fold less potent in Calu-3 (TMPRSS2+) than in Vero E6 (SARS-CoV-2 [4]): > 10 fold

Structure (SMILES): CCC(CC)COC(=O)[C@H](C)N[P@](=O)(OC[C@H]1O[C@@](C#N)(c2ccc3c(N)ncnn23)[C@H](O)[C@@H]1O)Oc1ccccc1 [Remdesivir]
- CPE [1]: ≈ 0
- interaction with nitazoxanide in CPE assay [1]: notable synergism

Structure (SMILES): CCOC(=O)C1=C[C@@H](OC(CC)CC)[C@H](NC(C)=O)[C@@H](N)C1 [Oseltamivir phosphate]
- antagonism with remdesivir [1]: no antagonism

Structure (SMILES): N#C[C@@]1(c2ccc3c(N)ncnn23)O[C@H](CO)[C@@H](O)[C@H]1O [GS-441524]
- CPE [1]: ≈ 0

Structure (SMILES): CCOC(=O)c1c(CSc2ccccc2)n(C)c2cc(Br)c(O)c(CN(C)C)c12 [Arbidol]
- concentrations showing antagonism against remdesivir [1]: 123 to 370 nM
- concentrations synergizing with remdesivir [1]: 3 to 10 µM
- interaction with remdesivir in CPE assay [1]: antagonize

Structure (SMILES): OC(c1cc(C(F)(F)F)nc2c(C(F)(F)F)cccc12)C1CCCCN1 (centres unmarked) [Mefloquine]
- antagonism against GS-441524 [1]: not
- concentrations that significantly antagonized against remdesivir [1]: 0.625 to 1.25 µM
- interaction with remdesivir at high concentrations [1]: synergize
- interaction with remdesivir in CPE assay [1]: strong antagonistic effect; also recorded: antagonize
